The values below come from patent US20060052456A1, “Kynurenine 3-hydroxylase inhibitors for the treatment of diabetes by increasing the number of islets of langerhans cells” (MERCK PATENT GMBH, priority 2003, published 2006).

Assay [1] addresses T1, kynurenine 3-hydroxylase (Rattus norvegicus, UniProt O88867).
T1 construct: from tissue; host or cells: rat liver homogenate (12000 rpm pellet, resuspended)
Kind of assay: Inhibitory activity on kynurenine 3-hydroxylase in rat liver homogenate. In kind it is biochemical. The note with it: mean of two experiments, read-out: IC50, kynurenine 3-hydroxylase inhibition. As to the method: Study of the Inhibitory Activity on Kynurenine 3-Hydroxylase in Rat Liver
Rat livers are homogenised (1:8 weight/volume) in a buffer solution comprising: 0.25 M sucrose; 50 mM pH 7.4 Tris; 1 mM EDTA; and 1 mM DTT.
The homogenates are centrifuged for 10 minutes at 12000 rpm. The pellets are resuspended in the buffer solution described above (1:2 weight/volume).
The kynurenine 3-hydroxylase inhibition is determined by incubating 10 μL of the homogenate with NADPH (2 mM), kynurenine (100 μM) and various concentrations of the test compounds in a final volume of 100 μL at 37° C. for 5 minutes.
The compounds are tested at concentrations of between 1 μM and 300 μM. 3,4-Dimethoxy-N-[4-(3-nitrophenyl)thiazol-2-yl]benzenesulfonamide is a compound from the company Hoffmann-LaRoche (Basle, see J. Med. Chem., 40 (1997), 4738). 30H-Kynurenine was tested according to the protocol described by Carpendo et al. (Neuroscience, 61 (1994), 237-244).
Each of the experiments is repeated once and the IC50 values (in μmol/L) are calculated and given in the form of a mean of these two experiments.
Results concerning representative examples of family Ih are given in Table II below, in which is indicated the measurement of the percentage of remaining kynurenine 3-hydroxylase activity relative to the control (100%).

Assay [2] concerns hepatocytes. Nature of the assay: Hepatic glucose production in vitro in isolated hepatocytes (Table IV). It counts as cell-based, Wistar rats. As to the method: The following two methods were used:
1) The hepatocytes are cultured for 16 to 18 hours in DMEM medium in the presence of AMP cyclase/dexamethasone at respective concentrations of 5×10^−5 M and 5×10^−7 M, with preincubation of the products at the test doses. After washing in pH 7.4 PBS buffer, the cells are incubated for three hours at 37° C. in a Krebs/AMPc/DEX buffer at the abovementioned concentrations. 0.1 μM insulin is used as reference substance. Two identical experiments are performed (Table III-1).
After washing in pH 7.4 PBS buffer, the cells are incubated for two hours at 37° C. in a Krebs buffer free of glucose and of insulin, containing lactate/pyruvate (10/1 mM) in the presence or absence of the test compounds. 10 μM MICA (5-methoxyindole-2-carboxylic acid) is used as reference substance. Two identical experiments are performed (Table III-2).
The protein assay is performed on the rest of the incubation medium via the Lowry method (BIO-RAD Dc protein assay, BIO-RAD 5000116).
The results are expressed as nmoles of glucose produced per […] of proteins. The statistical test used is the t test.

For assay [3], the system named is perfused isolated pancreases from N0 STZ diabetic rats. Nature of the assay: Secretion of insulin and glucagon in perfused isolated pancreases from N0 STZ diabetic rats. The note with it: perfused diabetic rat pancreas; absence of glucose, then 16.5 mM glucose; glucose-dependent. It counts as cell-based. The source says: The results are expressed as the mean ±SEM (standard error of mean) of several experiments. The statistical test used is the Scheffé test.

T1 sequence (O88867 whole entry): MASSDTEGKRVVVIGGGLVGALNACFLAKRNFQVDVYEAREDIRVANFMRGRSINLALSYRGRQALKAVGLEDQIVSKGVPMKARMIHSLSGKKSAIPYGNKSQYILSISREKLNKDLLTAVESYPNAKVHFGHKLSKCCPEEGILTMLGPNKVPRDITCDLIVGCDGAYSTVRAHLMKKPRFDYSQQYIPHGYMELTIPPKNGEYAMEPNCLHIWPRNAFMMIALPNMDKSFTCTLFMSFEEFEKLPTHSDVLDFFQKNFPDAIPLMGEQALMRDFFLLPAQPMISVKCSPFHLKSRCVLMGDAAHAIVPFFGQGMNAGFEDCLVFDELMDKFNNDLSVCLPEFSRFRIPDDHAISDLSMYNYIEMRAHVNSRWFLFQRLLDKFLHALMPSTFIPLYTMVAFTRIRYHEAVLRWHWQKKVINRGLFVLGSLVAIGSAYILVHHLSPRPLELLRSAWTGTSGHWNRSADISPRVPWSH

The term IC50 denotes the concentration at which inhibition is half-maximal. As usually defined, the inhibition is the change of the read-out against control, counted positive when it falls. Higher therefore signals a strong effect. Regarding `O=C(C[C@@H](Cc1ccccc1)C(=O)O)c1ccc(F)cc1` [Compound i, (R)-2-benzyl-4-(4-fluorophenyl)-4-oxobutanoic acid], the IC50 in assay [1] was determined as 1 ± 0.2 µM. The same compound gave an inhibition at 1 µM in assay [2] (Rattus norvegicus, Hepatocyte, 1 μM) of 13%. In assay [2] (Rattus norvegicus, Hepatocyte), this compound displayed an inhibition at 10 µM of 28% and an inhibition at 100 µM of 62%. Besides, the “inhibition of hepatic glucose production in vitro (in words)” value in assay [2] (isolated rat hepatocytes) is given as “powerful inhibitors of hepatic glucose production in vitro”. For the same compound, in assay [3], the “glucagon secretion (in words)” value is recorded as “stimulation” and the “insulin secretion (in words)” value was “stimulation”.
For the compound `COc1ccc(S(=O)(=O)Nc2nc(-c3cccc([N+](=O)[O-])c3)cs2)cc1OC` [Compound k, 3,4-dimethoxy-N-[4-(3-nitrophenyl)thiazol-2-yl]benzenesulfonamide], in assay [1], the IC50 stood at 10 ± 2.1 µM. Moreover, in assay [2] (Rattus norvegicus, Hepatocyte), the inhibition at 10 µM came to 0% and the inhibition at 100 µM is 22%. In assay [3], the “glucagon secretion (in words)” value was “stimulation” and the “insulin secretion (in words)” value was “stimulation”.
